Assay results from US20040029208A1, “Assay method and kit for testing biological material for exposure to stress using biomarkers” (priority 2000, published 2004).

Tests used:
all tested plants = assay: Most frequent TLC biomarker pattern of all tested plants; assay type: in vivo; settings: stability experiments
From the text: By th term “standard biomarker pattern” is m ant a patternd of the composition of compounds present in a plant after exposure to known stress factors. According to th invention th biomarker pattern of the unknown compounds, i.e. the above described biomarker pattern, is correlated to a standard biomarker pattern, also referred to as a “most frequent pattern”. In order to interpret the biomarker patterns of test material that has been exposed to unknown stress factors, it is a prerequisite to provide standard biomarker patterns, i.e. most frequent patterns. By the latter is meant the same type of biomarker pattern obtained after exposure to a stress factor in more than 50% of the cases of exposure, such as 60%, for example 70%, such as 80%, for example 90%. The biomarker patterns of test material that has been exposed to unknown stress factors may then be correlated to standard biomarker patterns. The standard biomarker pattern may be obtained for one particular stress factor or for a combination of at least two different stress factors.
The study was performed in greenhouse between August and December 1998 for all species. Degree days (=(Present temperature in ° C.-5° C.)×amount of days) were used as time scale. […] Before the harvest, the plants were evaluated for visual effects using the rating chart described in Table 1 (Hamit et al., 1977). […]

Bellis perennis = assay: TLC phytochemical changes after Roundup Bio (sensitivity); assay type: in vivo
From the text: (§1) Glyphosate (Roundup Bio (360 g L1:) was supplied by Monsanto Denmark ANS. Recommended field dose =1,44 kg a.i. ha^−1. In all the experiments, an automatic sprayer (designed in Denmark by Jens Kristensen 1994) was used where the herbicide application is achieved by moving boom equipment with two ordinary hydraulic flat fan nozzles (Hardl 4110-16). Two pots per spray event were placed in the middle of the spray chamber at 50 cm distance from the nozzle, delivering 200 L of water per hectare with a desired herbicide concentration (working pressure 2 bars; speed of spray boom=4.7 km h^1). The spraying was performed starting with the lowest concentration first, progressing towards the highest concentration. Between each herbicide, the sprayer was thoroughly rinsed several times with water. The control plants were sprayed with water.
(§2) The study was performed in greenhouse between August and December 1998 for all species. Degree days (=(Present temperature in ° C.-5° C.)×amount of days) were used as time scale. The plants were 226-378 degree days (30 days) old before exposure. The plants were exposed to 0, 1. 10 and 100% of the recommended field dose of Roundup Bio. Before the harvest, the plants were evaluated for visual effects using the rating chart described in Table 1 (Hamit et al., 1977). A rating of zero indicates full growth and vigour (compared with control plants) and a rating of nine, no growth/mortality. The plants were all harvested 180 degree days (14 days) after exposure. The plants were lyophilizied and k pt dry and in dark before phytochemical analysis.
(§3) 250 mg lyophilized plant material was crushed and extracted with 5.00 ml 75% ethanol in water in ultrasonic bath for two hours. Ice was added to the bath every 30 minutes to keep the temperature constant during the extraction. The extracts wer transferred to vials and centrifuged (3000 g per min.) for 10 minut s. The extract was immediately used for phytochemical analysis.
(§4) Frozen or fresh plant material was pressed for plant sap using a hand press. The sap was transferred to vials and centrifuged (3000 g per min.) for 10 minutes. The extract was immediately used for phytochemical analysis.
(§5) Rf-values (defined as, Rf-value=Distance of spot centre from start point/Distance of solvent front from start point (Stahl, 1969)) were determined for all phytochemical compounds.
(§6) In table 2 the sensitivity of the different plant species to Roundup Bio is presented. The sensitivity of the plant species was evaluated on basis of the presence of the most frequent pattern, the lowest concentration of exposure, and the visual effect of the exposed plants. In table 2, the plant species are divided into three groups: Group I: Very sensitive plant species; Group II: Medium sensitive plant species, and Group III: Less sensitive plant species. In Group I, a phytochemical pattern was present in plants exposed to 1% of the recommended field dose of Roundup Bio with a visual effect from 0 to 4. In Group II, a phytochemical pattern was found in plants exposed to 1 to 10% of the recommended field dose of the herbicide with a visual effect from 0 to 5. Finally, Group III presents plant species containing a phytochemical pattern after exposure of 10% of the recommended field dose with a visual effect from 5 to 7.
(§7) Table 2: Sensitivity of plants exposed to glyphosate (Roundup Bio), based on presence of phytochemical changes in all the TLC-Systems at lowest dose of concentration (LC) of the herbicide in percent of field dose. The corresponding visual effect (VE) Is presented (see table 1).

Fallopia convolvulus = assay: as above; assay type: in vivo
From the text: as §1, §2, §3, §4, §5, §6, §7

Leonorus carica = assay: as above; assay type: in vivo
From the text: as §1, §2, §3, §4, §5, §6, §7

Mentha spicata = assay: as above; assay type: in vivo
From the text: as §1, §2, §3, §4, §5, §6, §7

Nepeta cataria = assay: as above; assay type: in vivo
From the text: as §1, §2, §3, §4, §5, §6, §7

Papaver rhoeas = assay: as above; assay type: in vivo
From the text: as §1, §2, §3, §4, §5, §6, §7

Rudbeckia hirta = assay: as above; assay type: in vivo
From the text: as §1, §2, §3, §4, §5, §6, §7

Rumex crispus = assay: as above; assay type: in vivo
From the text: as §1, §2, §3, §4, §5, §6, §7

Sinapis avensis = assay: as above; assay type: in vivo
From the text: as §1, §2, §3, §4, §5, §6, §7

white birch seedlings = settings: within 24h of application, even at 1% of field rate; cited from earlier work

## O=C(O)CNCP(=O)(O)O [Glyphosate]
All tested plants; 60 degree days
  time after exposure at which phytochemical changes were seen: 4 days
All tested plants; 480 degree days
  time after exposure up to which a phytochemical pattern was present: up to 32 days
Bellis perennis
  LC: lowest dose of concentration of the herbicide with phytochemical changes in all the TLC-Systems: 10% of field dose
Fallopia convolvulus
  LC: lowest dose of concentration of the herbicide with phytochemical changes in all the TLC-Systems: 1% of field dose
Leonorus carica
  LC: lowest dose of concentration of the herbicide with phytochemical changes in all the TLC-Systems: 10% of field dose
Mentha spicata
  LC: lowest dose of concentration of the herbicide with phytochemical changes in all the TLC-Systems: 10% of field dose
Nepeta cataria
  LC: lowest dose of concentration of the herbicide with phytochemical changes in all the TLC-Systems: 10% of field dose
Papaver rhoeas
  LC: lowest dose of concentration of the herbicide with phytochemical changes in all the TLC-Systems: 1% of field dose
Rudbeckia hirta
  LC: lowest dose of concentration of the herbicide with phytochemical changes in all the TLC-Systems: 1% of field dose
Rumex crispus
  LC: lowest dose of concentration of the herbicide with phytochemical changes in all the TLC-Systems: 1% of field dose
Sinapis avensis
  LC: lowest dose of concentration of the herbicide with phytochemical changes in all the TLC-Systems: 10% of field dose
White birch seedlings
  increase of shikimic acid levels: 10 fold
